Reference: publication PMC8011081, “Bio-guided isolation of anti-leishmanial natural products from Diospyros gracilescens L. (Ebenaceae)” (BMC Complementary Medicine and Therapies, 2021)
Like-named read-outs stand apart in the source and are kept apart here.

What was measured:
L. donovani amastigotes = experiment: Inhibitory assay against intracellular L. donovani amastigotes in Raw 264.7 macrophages (resazurin); format: cell-based; conditions: Leishmania donovani, RAW264.7, isolated compounds, mean ± SD
Procedure: The effect of plant isolates against the intracellular amastigote form of L. donovani was evaluated essentially as described by Jain et al. with some modifications. Briefly, macrophage Raw 264.7 cells ([…]) were seeded in 96 well plates and incubated for 6 h at 37 °C under 5% CO2 for adhesion of the cells. Afterwards, the non-adherent cells were washed-out with sterile PBS. The adherent Raw 264.7 cells were infected with metacyclic promastigotes (4 × 10^5 cells) at an infection ratio of 1:10 macrophage: parasites and incubated for 24 h at 37 °C under 5% CO2 in order to allow infection of macrophages by metacyclic promastigotes. Thereafter, the overlying medium was removed, and the monolayer cells with internalized amastigotes were carefully washed four times with PBS to remove free parasites. Freshly prepared M199 medium containing 10% FBS and the test extracts were added in triplicate to the infected cells at serially diluted concentrations and incubated for 48 h at 37 °C under 5% CO2. After incubation, 0.05% Sodium dodecyl sulfate (SDS) was added in each well for 30 s for controlled lysis followed by M199 with 10% FBS as macrophage lysis stopper. Resazurin reagent (250 μg/mL) was thereafter added in each well and the plates were incubated for 24 h followed by fluorescence recording at λexcitation = 530 nm and λemission = 590 nm using a Tecan Infinite M200 microplate reader (Tecan). Inhibition percentages were calculated using Microsoft Excel Software and median inhibitory concentration (IC50) obtained from dose-response curves using GraphPad Prism 5.0. Software.

[1] = test system: L. donovani promastigotes (MHOM/SD/62/1S); experiment: Inhibitory assay against L. donovani promastigotes (resazurin colorimetric assay); format: cell-based; conditions: Leishmania donovani, mean ± SD, triplicate
Procedure: The cryopreserved promastigote form of L. donovani (1S (MHOM/SD/62/1S) was obtained from Bei Resources (https://www.beiresources.org/) and is routinely cultured at the Antimicrobial and Biocontrol Agents Unit, University of Yaoundé I, in Medium 199 (Sigma, Darmstadt, Germany) supplemented with 10% Heat-Inactivated fetal Bovine Serum (HIFBS) (Sigma, Darmstadt, Germany) and 100 IU/mL penicillin and 100 μg/mL streptomycin. The culture was maintained in 75 Cm^2 cell culture flask at 28 °C and checked for growth daily and sub-cultured everyday 72 h.
The stock solutions were prepared by dissolving each sample in 100% dimethyl sulfoxide (DMSO) and subsequently diluted serially in non-supplemented culture medium. […] The viability rate of promastigotes positively correlated with the amount of pink resorufin that was produced through the reduction of blue resazurin by the dehydrogenase enzymes in the inner mitochondrial membrane of the living parasites. Briefly, promastigotes from a logarithmic phase culture (4 × 10^5 cells/mL; 90 μL) were seeded in 96-well microtiter plates and were treated with 10 μl of inhibitors at different triplicate concentrations ranging 100 μg/mL-0.16 μg/mL for extracts and fractions and 50 μg/mL-0.08 μg/mL for compounds. The final concentration of DMSO in each well was not higher than 1%. Plates were incubated for 28 h at 28 °C, followed by the addition of 1 mg/mL resazurin (Sigma, Darmstadt, Germany). […] After an additional incubation for 44 h, plates were then read on a Magelan Infinite M200 fluorescence multi-well plate reader (Tecan, Männedorf, Switzerland) at an excitation and emission wave lengths of 530 and 590 nm respectively.

[2] = Cytotoxicity assay (Alamar blue); conditions: mouse
Procedure: The cytotoxicity profile of extracts, fractions and compounds was assessed using the Alamar blue assay against Raw 264.7 cells duly cultivated in complete Dulbecco’s Modified Eagle’s Medium (DMEM) containing 13.5 g/L DMEM (Sigma Aldrich), 10% fetal Bovine Serum (Sigma Aldrich), 0.2% sodium bicarbonate (w/v) (Sigma, Darmstadt, Germany) and 50 μg/mL gentamycin (Sigma Aldrich). Globally, macrophages were seeded into 96-wells cell-culture flat-bottomed plates at a density of 10^4 cells in final volume of 100 μL of complete medium/well and incubated for 24 h at 37 °C, 5% CO2, 70% RH in a ICO 105 memmert incubator (memmert, Schwabach, Germany) to allow cell adhesion. Ten μL of each serially diluted test sample were added in triplicate wells and assay plates were then incubated for 48 h in the same experimental conditions. Growth control consisted of 0.1%DMSO (100% growth) and positive control of podophyllotoxin (Sigma, Darmstadt, Germany) at 20 μM. Cell proliferation was checked by adding 10 μL of a stock solution of resazurin (0.15 mg/mL in sterile PBS) to each well followed by plates incubation during 4 h. Fluorescence was then read on a Tecan Infinite M200 fluorescence multi-well plate reader at an excitation/emission of 530/590 nm. […] Selectivity indices (CC50/IC50, defining the balance between cytotoxicity and antileishmanial activity) were calculated for each test substance.

[3] = test system: L. donovani promastigotes; experiment: Concentration/time inhibition (kill) kinetics, trypan blue counting; format: cell-based, Leishmania donovani
Procedure: The number of viable parasites was determined after every 24 h over 120 h by staining with trypan blue. Quantification of viable parasites was achieved by counting the parasites with clear cytoplasm (non-stained) using a Neubauer hemocytometer with cover slips. Three independent experiments were performed for each sample.

[4] = isolated compounds, read-out: IC50 (Promastigotes)

## C=C(C)[C@@H]1CC[C@]2(C)CC[C@]3(C)[C@H](CC[C@@H]4[C@@]5(C)CC[C@H](O)C(C)(C)[C@@H]5CC[C@]43C)[C@@H]12 [Lupeol (1), Lupeol]
L. donovani amastigotes
  IC50: 46.7 ± 0.65 µM
[1]; [4]
  IC50: 23.22 ± 0.08 µM
[2]; Raw 264.7 cells (macrophages)
  CC50 at 48 h: 19.3 ± 0.3 µM

## OC1CC(O)C(O)C(O)C1O (centres unmarked) [1-deoxyinositol (7), 1-deoxyinositol]
L. donovani amastigotes
  IC50: 120 ± 0.18 µM
[1]; [4]
  IC50: 241.71 ± 0.16 µM
[2]
  CC50: > 1220 µM

## CCC(CCC(C)C1CCC2C3CC=C4CC(OC5OC(CO)C(O)C(O)C5O)CCC4(C)C3CCC12C)C(C)C [β-sitosterol glucoside (6), β-sitosterol 3-O-D-glucopyranoside]
L. donovani amastigotes
  IC50: 32 ± 0.22 µM
[1]; [4]
  IC50: 49.34 ± 0.12 µM
[2]
  CC50 at 48 h: 28.6 ± 0.07 µM

## C=C(C)[C@@H]1CC[C@]2(C(=O)O)CC[C@]3(C)[C@H](CC[C@@H]4[C@@]5(C)CC[C@H](O)C(C)(C)[C@@H]5CC[C@]43C)[C@@H]12 [Betulinic acid (3), Betulinic acid]
L. donovani amastigotes
  IC50: 18.46 ± 0.01 µM
[1]; [4]
  IC50: 13.69 ± 0.07 µM
[2]
  CC50: 82.39 ± 0.09 µM

## C[C@@H]1[C@H](O)[C@@H](C)/C=C/C=C/C=C/C=C/C=C/C=C/C=C/[C@H](O[C@@H]2O[C@H](C)[C@@H](O)[C@H](N)[C@@H]2O)C[C@@H]2O[C@](O)(C[C@@H](O)C[C@@H](O)[C@H](O)CC[C@@H](O)C[C@@H](O)CC(=O)O[C@H]1C)C[C@H](O)[C@H]2C(=O)O [Amphotericin B, reference compound]
[3]; 0.5x IC50, IC50, 2x IC50, 4x IC50, viable parasites counted every 24 h
  Effect on promastigote replication / growth: significant reduction in promastigote replication after 24 h
[3]; all tested concentrations, exposure up to 120 h
  Cidal effect: no evidence of cidal effect
[1]; crude extracts, H20: EtOH, read-out: Promastigote of L. donovani (MHOM/SD/62/1S) IC50 ± SD
  IC50: 0.34 ± 0.22 µg/mL
[1]; [4]
  IC50: 0.37 ± 0.22 µM
[1]; trunk extract and fractions, read-out: IC50 (Promastigotes)
  IC50: 0.34 ± 0.22 µg/mL
